For five molecules, Kd results are on record in patent US20220257775A1 (GLYCOMIMETICS, INC., priority 2019, published 2022).

T1 sequence (P16581 with tags, fused parts or gaps limits assumed): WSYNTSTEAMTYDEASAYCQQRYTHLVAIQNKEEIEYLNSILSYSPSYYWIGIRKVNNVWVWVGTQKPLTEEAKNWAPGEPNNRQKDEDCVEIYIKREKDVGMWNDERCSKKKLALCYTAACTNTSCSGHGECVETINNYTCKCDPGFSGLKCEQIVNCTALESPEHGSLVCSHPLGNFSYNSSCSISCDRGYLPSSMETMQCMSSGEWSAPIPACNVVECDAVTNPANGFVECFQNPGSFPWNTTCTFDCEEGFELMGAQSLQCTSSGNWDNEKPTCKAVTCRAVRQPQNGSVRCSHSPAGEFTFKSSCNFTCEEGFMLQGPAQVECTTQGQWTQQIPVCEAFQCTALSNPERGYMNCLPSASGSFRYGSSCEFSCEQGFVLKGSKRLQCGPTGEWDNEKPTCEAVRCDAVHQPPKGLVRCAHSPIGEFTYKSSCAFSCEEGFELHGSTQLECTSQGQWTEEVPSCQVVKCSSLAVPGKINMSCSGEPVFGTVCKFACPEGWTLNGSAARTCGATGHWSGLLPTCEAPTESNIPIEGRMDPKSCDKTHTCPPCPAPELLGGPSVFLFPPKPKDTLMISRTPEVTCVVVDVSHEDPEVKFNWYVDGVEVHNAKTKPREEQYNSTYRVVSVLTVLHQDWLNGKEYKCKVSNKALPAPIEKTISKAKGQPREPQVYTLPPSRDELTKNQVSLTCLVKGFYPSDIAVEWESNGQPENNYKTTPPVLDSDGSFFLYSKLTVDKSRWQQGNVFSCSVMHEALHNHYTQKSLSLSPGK

The assay has as its target T1, recombinant human E-selectin/CD63E Fc Chimera (Homo sapiens, UniProt P16581).
T1 construct: Fc (human IgG Fc fusion partner); purchased R & D systems
Kind of assay: E-Selectin Activity - Analysis by SPR. The note with it: Biacore X100, E-selectin captured on anti-human IgG (Fc) chip. In kind it is binding. The protocol:
Surface Plasmon Resonance (SPR) measurements were performed on a Biacore X100 instrument (GE Healthcare). A CM5 sensor chip (GE Healthcare) was used for the interaction between E-selectin and GMI compound. Anti-human IgG (Fc) antibody (GE Healthcare) was immobilized onto the chip by amine coupling according to the manufacturer's instructions. In brief, after a 7-min injection (flow rate of 5 μl/min) of 1:1 mixture of N-ethyl-N′-(3-dimethylaminopropyl) carbodiimide hydrochloride and N-hydroxysuccinimide, anti-human IgG (Fc) antibody (25 μg/ml in 10 mM sodium acetate buffer, pH 5.0) was injected using a 6-min injection at 5 μl/min. Remaining activated groups were blocked by injecting 1 M ethanolamine/HCl, pH 8.5. The recombinant human E-selectin/CD63E Fc Chimera (50 μg/ml) (R & D systems) was injected into the experimental cell until 6000-7000 RU was captured onto the antibody surface. No recombinant human E-selectin/CD63E was injected into the control cell. Increasing concentrations of GMI compound samples were injected at 30 μl/min into both flow cells and all sensorgrams were recorded against the control. Regeneration of the anti-human IgG (Fc) surface was achieved by injecting 3M magnesium chloride, followed by 50 mM sodium hydroxide. Data were analyzed using Biacore X100 evaluation/BIA evaluation 4.1.1 software (GE Healthcare) and Graphad prism 6 software.
For the molecule `CC[C@H]1C[C@@H](C(=O)NCCNC(=O)CCOCCOCCOCCOCCOCCOCCOCCOCCOCCOCCOCCOCCOCCOCCOCCOCCOCCC(=O)NCCNC(=O)[C@@H]2C[C@H](CC)[C@@H](O[C@@H]3O[C@@H](C)[C@@H](O)[C@@H](O)[C@@H]3O)[C@H](O[C@@H]3O[C@H](CO)[C@H](O)[C@H](O[C@@H](CC4CCCCC4)C(=O)O)[C@H]3NC(C)=O)C2)C[C@@H](O[C@@H]2O[C@H](CO)[C@H](O)[C@H](O[C@@H](CC3CCCCC3)C(=O)O)[C@H]2NC(C)=O)[C@@H]1O[C@@H]1O[C@@H](C)[C@@H](O)[C@@H](O)[C@@H]1O` [Compound 11], the Kd was determined as 8.5 nM.

As for `CC[C@H]1C[C@@H](C(=O)NCCNC(=O)CCOCCOCCOCCOCCOCCOCCOCCOCCOCCOCCOCCOCCOCCOCCOCCOCCOCCOCCOCCOCCOCCC(=O)NCCNC(=O)[C@@H]2C[C@H](CC)[C@@H](O[C@@H]3O[C@@H](C)[C@@H](O)[C@@H](O)[C@@H]3O)[C@H](O[C@@H]3O[C@H](CO)[C@H](O)[C@H](O[C@@H](CC4CCCCC4)C(=O)O)[C@H]3NC(C)=O)C2)C[C@@H](O[C@@H]2O[C@H](CO)[C@H](O)[C@H](O[C@@H](CC3CCCCC3)C(=O)O)[C@H]2NC(C)=O)[C@@H]1O[C@@H]1O[C@@H](C)[C@@H](O)[C@@H](O)[C@@H]1O` [Compound 13], the Kd was 4.7 nM.

For `CCC1CC(C(=O)NCCNC(=O)c2cn(CCOCCC(=O)NCCCC[C@H](NC(=O)CCOCCn3cc(C(=O)NCCNC(=O)C4CC(CC)[C@@H](O[C@@H]5OC(C)[C@@H](O)[C@H](O)C5O)[C@H](O[C@@H]5O[C@@H](CO)[C@H](O)C(O[C@@H](CC6CCCCC6)C(=O)O)C5NC(C)=O)C4)nn3)C(=O)OCc3ccccc3)nn2)C[C@@H](O[C@@H]2O[C@@H](CO)[C@H](O)C(O[C@@H](CC3CCCCC3)C(=O)O)C2NC(C)=O)[C@@H]1O[C@@H]1OC(C)[C@@H](O)[C@H](O)C1O` (some centres unmarked) [Compound 37], the Kd was determined as 3.9 nM.

In the case of `CC[C@H]1C[C@@H](C(=O)NCCNC(=O)CCOCCOCCOCCOCCOCCOCCOCCOCCOCCOCCOCCOCCOCCOCCOCCOCCOCCOCCOCCOCCOCCOCCOCCOCCOCCC(=O)NCCNC(=O)[C@@H]2C[C@H](CC)[C@@H](O[C@@H]3O[C@@H](C)[C@@H](O)[C@@H](O)[C@@H]3O)[C@H](O[C@@H]3O[C@H](CO)[C@H](O)[C@H](O[C@@H](CC4CCCCC4)C(=O)O)[C@H]3NC(C)=O)C2)C[C@@H](O[C@@H]2O[C@H](CO)[C@H](O)[C@H](O[C@@H](CC3CCCCC3)C(=O)O)[C@H]2NC(C)=O)[C@@H]1O[C@@H]1O[C@@H](C)[C@@H](O)[C@@H](O)[C@@H]1O` [Compound 12], the Kd was found to be 3.7 nM.

`CC[C@H]1C[C@@H](C(=O)NCCNC(=O)CCOCCOCCC(=O)NCCNC(=O)[C@@H]2C[C@H](CC)[C@@H](O[C@@H]3O[C@@H](C)[C@@H](O)[C@@H](O)[C@@H]3O)[C@H](O[C@@H]3O[C@H](CO)[C@H](O)[C@H](O[C@@H](CC4CCCCC4)C(=O)O)[C@H]3NC(C)=O)C2)C[C@@H](O[C@@H]2O[C@H](CO)[C@H](O)[C@H](O[C@@H](CC3CCCCC3)C(=O)O)[C@H]2NC(C)=O)[C@@H]1O[C@@H]1O[C@@H](C)[C@@H](O)[C@@H](O)[C@@H]1O` [Compound 18]: the dissociation constant Kd was 3.5 nM.
